From patent US9302999B2, “Substituted triazoles as herbicides” (E. I. DU PONT DE NEMOURS AND COMPANY, priority 2012, dated 2016)

What was measured:
Type in all cases: in vivo
[1] = system: oilseed rape (Brassica napus); assay: Test D pre-/postemergence: oilseed rape
Excerpt: Seeds of plant species selected from bluegrass (annual bluegrass, Poa annua), blackgrass (Alopecurus myosuroides), canarygrass (Phalaris minor), chickweed (common chickweed, Stellaria media), galium (catchweed bedstraw, Galium aparine), bromegrass, downy (downy bromegrass, Bromus tectorum), field poppy (Papaver rhoeas), field violet (Viola arvensis), foxtail, green (green foxtail, Setaria viridis), deadnettle (henbit deadnettle, Lamium amplexicaule), ryegrass, Italian (Italian ryegrass, Lolium multiflorum), kochia (Kochia scoparia), lambsquarters (Chenopodium album), oilseed rape (Brassica napus), pigweed (Amaranthus retroflexus), Russian thistle (Salsola iberica), chamomile (scentless chamomile, Matricaria inodora), speedwell (bird's-eye speedwell, Veronica persica), barley, spring (spring barley, Hordeum vulgare), wheat, spring (spring wheat, Triticum aestivum), buckwheat, wild (wild buckwheat, Polygonum convolvulus), mustard, wild (wild mustard, Sinapis arvensis), oat, wild (wild oat, Avena fatua), radish, wild (wild radish, Raphanus raphanistrum), windgrass (Apera spica-venti), barley, winter (winter barley, Hordeum vulgare), and wheat, winter (winter wheat, Triticum aestivum) were planted into a silt loam soil and treated preemergence with test chemicals formulated in a non-phytotoxic solvent mixture which included a surfactant. At the same time, these same crop and weed species were planted in pots containing the planting medium comprising spaghnum peat moss, vermiculite, wetting agent and starter nutrients and treated with postemergence applications of the test chemicals formulated in the same manner. Plants ranged in height from 2 to 18 cm (1- to 4-leaf stage).
(§1) Treated plants and controls were maintained in a controlled growth environment for 14 to 21 days after which time all species were compared to controls and visually evaluated. Plant response ratings, summarized in Table D, are based on a scale of 0 to 100 where 0 is no effect and 100 is complete control. A dash (-) response means no test result.

[2] = system: blackgrass (Alopecurus myosuroides); assay: Test D pre-/postemergence: blackgrass
How it was run: (§2)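 Pre- and postemergence herbicide screen. Soil for pre: silt loam; post medium: peat moss, vermiculite, wetting agent, starter nutrients. Plant stage at post: 1- to 4-leaf. Readout: visual % control, 14–21 days.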

rice (Oryza sativa) = assay: Test C flooded paddy test: rice; details: scale 0 to 100 (0 no effect, 100 complete control)
How it was run: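 Plants at 2-leaf stage in pots flooded 3 cm above soil; compounds applied directly into the paddy water, depth maintained. Visual rating against controls after 13–15 days in greenhouse, scale 0 (no effect) to 100 (complete control).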

[3] = system: galium (catchweed bedstraw, Galium aparine); assay: Test D pre-/postemergence: galium
How it was run: as §2

[4] = system: panicum, fall (fall panicum Panicum dichotomiflorum); assay: Test F pre-/postemergence: panicum, fall
Excerpt: (§3) Seeds of plant species selected from corn (Zea mays), soybean (Glycine max), velvetleaf (Abutilon theophrasti), lambsquarters (Chenopodium album), poinsettia, wild (wild poinsettia, Euphorbia heterophylla), pigweed, palmer (palmer pigweed, Amaranthus palmeri), waterhemp (common waterhemp, Amaranthus rudis), surinam grass (Brachiaria decumbens), crabgrass, Brazil (Brazilian crabgrass, Digitaria horizontalis), panicum, fall (fall panicum Panicum dichotomiflorum), crabgrass, large (large crabgrass, Digitaria sanguinalis), foxtail, giant (giant foxtail, Setaria faberii), foxtail, green (green foxtail Setaria viridis), goosegrass (Eleusine indica), ragweed (common ragweed, Ambrosia elatior), barnyardgrass (Echinochloa crus-galli), sandbur (southern sandbur, Cenchrus echinatus), arrowleaf sida (Sida rhombifolia), ryegrass, Italian (Italian ryegrass, Lolium multiflorum), dayflower, VA (Virginia (VA) dayflower, Commelina virginica), field bindweed (Convolvulus arvensis), cocklebur (common cocklebur, Xanthium strumarium), morningglory (Ipomoea coccinea), nightshade (eastern black nightshade, Solanum ptycanthum), kochia (Kochia scoparia), nutsedge, yellow (yellow nutsedge, Cyperus esculentus), johnsongrass (Sorghum halepense), smartweed (ladysthumb smartweed, Polygonum persicaria), and beggarticks (hairy beggarticks, Bidens pilosa), were planted into a silt loam soil and treated preemergence with test chemicals formulated in a non-phytotoxic solvent mixture which included a surfactant. At the same time, plants selected from these crop and weed species and also pigweed (Amaranthus retroflexus), waterhemp_RES1 (ALS/Triazine resistant common waterhemp, Amaranthus rudis) and waterhemp_RES2 (ALS/HPPD resistant common waterhemp, Amaranthus rudis) were planted in pots containing a planting medium comprising spaghnum peat moss, vermiculite, wetting agent and starter nutrients treated with postemergence applications of some of the test chemicals formulated in the same manner. Plants ranged in height from 2 to 18 cm for postemergence treatments (1- to 4-leaf stage).
as §1, with “greenhouse” for “controlled growth environment”, “days,” for “days”, “E,” for “D,”

[5] = system: lambsquarters (Chenopodium album); assay: Test F pre-/postemergence: lambsquarters; details: Preemergence
Excerpt: as §3
as §1, with “greenhouse” for “controlled growth environment”, “days,” for “days”, “E,” for “D,”

[6] = system: foxtail, giant (giant foxtail, Setaria faberii); assay: Test F pre-/postemergence: foxtail, giant; details: Preemergence
Excerpt: as §3
as §1, with “greenhouse” for “controlled growth environment”, “days,” for “days”, “E,” for “D,”

[7] = system: ryegrass, Italian (Italian ryegrass, Lolium multiflorum); assay: Test F pre-/postemergence: ryegrass, Italian
Excerpt: as §3
as §1, with “greenhouse” for “controlled growth environment”, “days,” for “days”, “E,” for “D,”

[8] = Postemergence, 31 g ai/ha, scale 0 to 100 (0 no effect, 100 complete control)
[9] = Postemergence, 62 g ai/ha, scale 0 to 100 (0 no effect, 100 complete control)
[10] = Postemergence, 125 g ai/ha, scale 0 to 100, 0 no effect, 100 complete control
[11] = Postemergence, 250 g ai/ha, scale 0 to 100 (0 no effect, 100 complete control)
[12] = Postemergence, 16 g ai/ha, scale 0 to 100
[13] = Preemergence, 16 g ai/ha, scale 0 to 100, 0 no effect, 100 complete control
[14] = Preemergence, 31 g ai/ha, scale 0 to 100, 0 no effect, 100 complete control
[15] = Preemergence, 62 g ai/ha, scale 0 to 100
[16] = Preemergence, 125 g ai/ha, scale 0 to 100
[17] = Preemergence, 250 g ai/ha, scale 0 to 100
[18] = 16 g ai/ha, scale 0 to 100, 0 no effect, 100 complete control
[19] = 31 g ai/ha, scale 0 to 100, 0 no effect, 100 complete control
[20] = Postemergence, 8 g ai/ha, scale 0 to 100
[21] = Postemergence, 31 g ai/ha, scale 0 to 100
[22] = Postemergence, 62 g ai/ha, scale 0 to 100
[23] = Postemergence, 125 g ai/ha, scale 0 to 100

Cc1nn(-c2ccc(C(F)(F)F)cc2)nc1Oc1ccnc(C(F)(F)F)c1 [Compound 120]
Plant response rating: Oilseed Rape [1, 8]: 50
Plant response rating: Oilseed Rape [1, 9]: 80
Plant response rating: Oilseed Rape [1, 10]: 90
Plant response rating: Oilseed Rape [1, 11]: 98
Plant response rating, Oilseed Rape [1, 12]: 20
Plant response rating, Oilseed Rape [1, 13]: 0
Plant response rating, Oilseed Rape [1, 14]: 10
Plant response rating, Oilseed Rape [1, 15]: 10
Plant response rating, Oilseed Rape [1, 16]: 30
Plant response rating, Oilseed Rape [1, 17]: 70
Plant response rating: Blackgrass [2, 8]: 10
Plant response rating: Blackgrass [2, 9]: 30
Plant response rating: Blackgrass [2, 10]: 75
Plant response rating: Blackgrass [2, 11]: 85
Plant response rating, Blackgrass [2, 12]: 5
Plant response rating, Blackgrass [2, 13]: 0
Plant response rating, Blackgrass [2, 14]: 80
Plant response rating, Blackgrass [2, 15]: 98
Plant response rating, Blackgrass [2, 16]: 100
Plant response rating, Blackgrass [2, 17]: 100
Plant response rating, Rice (rice (Oryza sativa); Flood (flooded paddy test), 125 g ai/ha, visual rating after 13 to 15 days): 70
Plant response rating, Rice (rice (Oryza sativa); Flood (flooded paddy test), 250 g ai/ha, visual rating after 13 to 15 days): 80
Plant response rating, Rice (rice (Oryza sativa); Flood, 62 g ai/ha): 60
Plant response rating: Galium [3, 8]: 60
Plant response rating: Galium [3, 9]: 70
Plant response rating: Galium [3, 10]: 98
Plant response rating: Galium [3, 11]: 100
Plant response rating, Galium [3, 12]: 50
Plant response rating, Galium [3, 13]: 0
Plant response rating, Galium [3, 14]: 15
Plant response rating, Galium [3, 15]: 65
Plant response rating, Galium [3, 16]: 100
Plant response rating, Galium [3, 17]: 100

COc1nn(-c2cccc(F)c2)nc1Cc1ccnc(C(F)(F)F)c1 [Compound 139]
Plant response rating, Panicum, Fall [4, 13]: 0
Plant response rating, Panicum, Fall [4, 14]: 25
Plant response rating, Panicum, Fall [4, 16]: 100
Plant response rating, Panicum, Fall [4, 17]: 100
Plant response rating, Lambsquarters [5, 18]: 0
Plant response rating, Lambsquarters [5, 19]: 20
Plant response rating, Lambsquarters ([5]; 62 g ai/ha, scale 0 to 100): 65
Plant response rating, Lambsquarters ([5]; 125 g ai/ha, scale 0 to 100): 90
Plant response rating, Lambsquarters ([5]; 250 g ai/ha, scale 0 to 100): 98
Plant response rating, Foxtail, Giant [6, 18]: 0
Plant response rating, Foxtail, Giant [6, 19]: 40
Plant response rating, Foxtail, Giant ([6]; 62 g ai/ha, scale 0 to 100): 85
Plant response rating, Foxtail, Giant ([6]; 125 g ai/ha, scale 0 to 100): 98
Plant response rating, Foxtail, Giant ([6]; 250 g ai/ha, scale 0 to 100): 100
Plant response rating, Ryegrass, Italian [7, 13]: 0
Plant response rating, Ryegrass, Italian [7, 14]: 5
Plant response rating, Ryegrass, Italian [7, 16]: 30
Plant response rating, Ryegrass, Italian [7, 17]: 95

Cc1nn(-c2ccnc(Cl)c2)nc1Cc1ccnc(C(F)(F)F)c1 [Compound 141]
Plant response rating, Panicum, Fall [4, 20]: 30
Plant response rating, Panicum, Fall [4, 12]: 50
Plant response rating, Panicum, Fall [4, 21]: 50
Plant response rating, Panicum, Fall [4, 22]: 60
Plant response rating, Panicum, Fall [4, 23]: 75
Plant response rating, Ryegrass, Italian [7, 20]: 10
Plant response rating, Ryegrass, Italian [7, 12]: 10
Plant response rating, Ryegrass, Italian [7, 21]: 15
Plant response rating, Ryegrass, Italian [7, 22]: 25
Plant response rating, Ryegrass, Italian [7, 23]: 40
